Experimental data from US9670212B2, “Inhibitors of PI3K-delta and methods of their use and manufacture” (Exelixis, Inc., priority 2010, dated 2017).

Target: PI3K delta (Homo sapiens (Human), UniProt O00329)
Assay: Luciferase-coupled chemiluminescence kinase assay (KinaseGlo, ATP consumption)
Format: biochemical
How it was run: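 Kinase, compound and ATP (at or below KM) reacted 2 h at ambient temperature; remaining ATP detected by KinaseGlo luciferase chemiluminescence as percent ATP consumed. 10-point dose-response, curves fitted to give IC50.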

Sequence of PI3K delta (O00329 whole entry): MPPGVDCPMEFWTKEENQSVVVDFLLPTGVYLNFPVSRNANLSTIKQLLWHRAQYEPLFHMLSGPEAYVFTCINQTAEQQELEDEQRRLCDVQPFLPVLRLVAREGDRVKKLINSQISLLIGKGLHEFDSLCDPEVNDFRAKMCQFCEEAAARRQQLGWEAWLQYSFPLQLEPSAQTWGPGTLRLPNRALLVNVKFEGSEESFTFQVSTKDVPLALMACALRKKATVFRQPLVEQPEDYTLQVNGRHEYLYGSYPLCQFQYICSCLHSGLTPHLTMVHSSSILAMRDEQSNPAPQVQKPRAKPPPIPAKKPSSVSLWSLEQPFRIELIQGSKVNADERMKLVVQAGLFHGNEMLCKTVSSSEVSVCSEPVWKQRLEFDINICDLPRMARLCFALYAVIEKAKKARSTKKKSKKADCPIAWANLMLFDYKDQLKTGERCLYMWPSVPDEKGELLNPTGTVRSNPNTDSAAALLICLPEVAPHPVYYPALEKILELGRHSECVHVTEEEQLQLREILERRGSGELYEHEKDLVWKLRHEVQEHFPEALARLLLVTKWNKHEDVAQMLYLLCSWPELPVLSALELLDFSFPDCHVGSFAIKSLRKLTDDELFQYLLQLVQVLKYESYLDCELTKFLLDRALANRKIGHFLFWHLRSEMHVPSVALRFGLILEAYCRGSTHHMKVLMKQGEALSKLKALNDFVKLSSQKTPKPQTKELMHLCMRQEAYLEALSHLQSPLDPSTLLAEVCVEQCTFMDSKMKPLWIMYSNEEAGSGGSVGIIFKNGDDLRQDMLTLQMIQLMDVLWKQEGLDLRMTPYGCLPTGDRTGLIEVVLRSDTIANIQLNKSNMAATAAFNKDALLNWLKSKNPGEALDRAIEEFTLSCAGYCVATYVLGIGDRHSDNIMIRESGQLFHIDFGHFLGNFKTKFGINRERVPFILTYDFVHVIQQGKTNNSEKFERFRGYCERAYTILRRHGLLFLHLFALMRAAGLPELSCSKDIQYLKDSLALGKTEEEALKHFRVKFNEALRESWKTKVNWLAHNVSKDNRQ
Sequence of PI3K delta (P27986 whole entry partner): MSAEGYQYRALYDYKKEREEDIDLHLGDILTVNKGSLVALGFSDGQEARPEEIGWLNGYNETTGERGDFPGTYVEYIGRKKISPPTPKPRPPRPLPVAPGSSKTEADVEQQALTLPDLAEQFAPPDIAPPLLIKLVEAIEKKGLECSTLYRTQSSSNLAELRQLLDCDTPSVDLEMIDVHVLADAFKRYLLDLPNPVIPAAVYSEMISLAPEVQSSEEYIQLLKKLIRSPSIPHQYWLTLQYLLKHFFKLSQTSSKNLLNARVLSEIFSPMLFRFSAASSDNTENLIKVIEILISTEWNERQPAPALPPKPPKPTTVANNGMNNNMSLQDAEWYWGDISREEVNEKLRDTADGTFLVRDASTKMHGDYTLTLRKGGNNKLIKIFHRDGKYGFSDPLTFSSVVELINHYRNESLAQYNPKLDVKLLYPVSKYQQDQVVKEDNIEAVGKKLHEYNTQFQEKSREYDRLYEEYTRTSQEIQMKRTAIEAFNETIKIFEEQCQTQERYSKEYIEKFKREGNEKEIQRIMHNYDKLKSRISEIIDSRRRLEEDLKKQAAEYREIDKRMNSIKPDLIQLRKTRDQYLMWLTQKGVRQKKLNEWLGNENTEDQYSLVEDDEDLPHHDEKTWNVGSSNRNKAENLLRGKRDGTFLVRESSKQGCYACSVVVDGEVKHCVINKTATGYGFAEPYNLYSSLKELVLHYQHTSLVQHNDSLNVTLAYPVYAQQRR

| IC50 [nM] | SMILES |
| --- | --- |
| 500 to 1500 | Cc1ccccc1-n1c(CNC(=O)c2nc(Br)cnc2N)nc2cccc(C)c2c1=O [Compound 160, 3-amino-6-bromo-N-{[5-methyl-3-(2-methylphenyl)-4-oxo-3,4-dihydroquinazolin-2-yl]methyl}pyrazine-2-carboxamide] |
| 500 to 1500 | Cc1ccccc1-n1c(Cn2cnc3c(N)ncnc32)nc2ccsc2c1=O [Compound 162, 2-[(6-amino-9H-purin-9-yl)methyl]-3-(2-methylphenyl)thieno[3,2-d]pyrimidin-4(3H)-one] |
| 500 to 1500 | Cc1ccccc1-n1c(CSc2ncnc3nc[nH]c23)nc2ccsc2c1=O [Compound 163, 3-(2-methylphenyl)-2-[(7H-purin-6-ylthio)methyl]thieno[3,2-d]pyrimidin-4(3H)-one] |
| 500 to 1500 | Cc1cccc2cc(Cn3cnc4c(N)ncnc43)c(NC3CCN(C)CC3)nc12 [Compound 164, 3-[(6-amino-9H-purin-9-yl)methyl]-8-methyl-N-(1-methylpiperidin-4-yl)quinolin-2-amine] |
| 500 to 1500 | Cc1cccc2cc(Cn3cnc4c(N)ncnc43)c(NC3CCOCC3)nc12 [Compound 165, 3-[(6-amino-9H-purin-9-yl)methyl]-8-methyl-N-(tetrahydro-2H-pyran-4-yl)quinolin-2-amine] |
| 50 to 250 | CC(=O)N1CCN(c2nc3c(C)cccc3cc2Cn2cnc3c(N)ncnc32)CC1 [Compound 166, 9-{[2-(4-acetylpiperazin-1-yl)-8-methylquinolin-3-yl]methyl}-9H-purin-6-amine] |
| 500 to 1500 | COCCNc1nc2c(C)cccc2cc1Cn1cnc2c(N)ncnc21 [Compound 167, 3-[(6-amino-9H-purin-9-yl)methyl]-8-methyl-N-[2-(methyloyx)ethyl]quinolin-2-amine] |
| 500 to 1500 | Cc1ccccc1-c1c(Cn2cnc3c(N)ncnc32)nc2ccccc2c1C [Compound 168, 9-{[4-methyl-3-(2-methylphenyl)quinolin-2-yl]methyl}-9H-purin-6-amine] |
| 500 to 1500 | Cc1ccccc1-c1c(Cn2cnc3ncnc(N)c32)nc2ccccc2c1C [Compound 169, 7-{[4-methyl-3-(2-methylphenyl)quinolin-2-yl]methyl}-7H-purin-6-amine] |
| 50 to 250 | Cc1cccc2cc(Cn3cnc4c(N)ncnc43)c(N3CCCC3C)nc12 (stereo not shown) [Compound 170, 9-{[8-methyl-2-(2-methylpyrrolidin-1-yl)quinolin-3-yl]methyl}-9H-purin-6-amine] |
| 50 to 250 | Cc1cccc2cc(Cn3cnc4c(N)ncnc43)c(N3CCCC3)nc12 [Compound 171, 9-[(8-methyl-2-pyrrolidin-1-ylquinolin-3-yl)methyl]-9H-purin-6-amine] |
| 50 to 250 | Cc1cccc2cc(Cn3cnc4c(N)ncnc43)c(N3CCNCC3)nc12 [Compound 172, 9-[(8-methyl-2-piperazin-1-ylquinolin-3-yl)methyl]-9H-purin-6-amine] |
| 50 to 250 | Cc1cccc2cc(Cn3cnc4c(N)ncnc43)c(N3CCN(C)CC3)nc12 [Compound 173, 9-{[8-methyl-2-(4-methylpiperazin-1-yl)quinolin-3-yl]methyl}-9H-purin-6-amine] |

| SMILES | IC50 [nM] |
| --- | --- |
| Cc1ccccc1-n1c(CNC(=O)c2nccnc2Cl)nc2cccc(C)c2c1=O [Compound 159, 3-chloro-N-{[5-methyl-3-(2-methylphenyl)-4-oxo-3,4-dihydroquinazolin-2-yl]methyl}pyrazine-2-carboxamide] | 500 to 1500 |
| Cc1ccccc1-n1c(CNC(=O)c2ncccc2N)nc2cccc(C)c2c1=O [Compound 161, 3-amino-N-{[5-methyl-3-(2-methylphenyl)-4-oxo-3,4-dihydroquinazolin-2-yl]methyl}pyridine-2-carboxamide] | 500 to 1500 |
| Cc1ccccc1-n1c(CNC(=O)c2ccnc(N)c2)nc2cccc(C)c2c1=O [Compound 174, 2-amino-N-{[5-methyl-3-(2-methylphenyl)-4-oxo-3,4-dihydroquinazolin-2-yl]methyl}pyridine-4-carboxamide] | 500 to 1500 |
